{"source": "patent US20210254101A1", "about": "“METHODS FOR TREATING SPINAL CORD INJURY” (THE CHILDREN'S MEDICAL CENTER CORPORATION, priority 2018, published 2021)", "key": {"[1]": {"test_system": "mice with staggered lesions", "experiment": "Basso Mouse Scale (BMS) open field locomotion after staggered T7/T10 lateral hemisections", "type": "in vivo", "settings": "for stepping ability / functional recovery (BMS), chronic compound treatment: daily i.p. treatment from 1 week after injury, BMS about 24 h after previous dose, FIG. 1E, 7A", "protocol": "A staggered lesion paradigm was optimized in which two lateral hemisections were performed at the thoracic (T) 7 and T10 levels simultaneously (FIGS. 1A and 1B), similar to the model previously described (Courtine 2008; van den Brand, 2012). The T10 lesion is a lateral hemisection that ends at the spinal cord midline, while the T7 lesion, contralateral to the T10 lesion, extends slightly beyond the midline (FIG. 1A). With this double hemisection procedure, all descending axons passing T10 are severed, leaving only those crossing the midline between T7 and T10 intact (FIG. 1C). Indeed, by immunohistochemistry with anti-5-HT antibodies, which label serotonergic axons, descending serotonergic axons could be detected in the spinal cord segments between the lesions, but not in the lumbar spinal cord (FIG. 1C). Thus, a relay zone remains between and around the lesions (T7 and T10) where descending axons terminate, and where some propriospinal neurons maintain their connections with lumbar spinal neurons (see herein below).\nThis double hemisection SCI model was used to seek small molecule compounds that could reactivate the spared, but dormant, spinal connections by monitoring hindlimb motor performance during over-ground locomotion. To this end, daily compound treatment was started 1 week after injury and then monitored the BMS scores approximately 24 hours after the previous day's compound treatment on a weekly basis (FIG. 1D). Behavioral outcomes observed at these time points likely reflect sustained effects of the treatment, which are more clinically relevant.\nSurgical Procedures. The procedure of T7 and T10 double lateral hemisection was similar to that described elsewhere (Courtine et al., 2008; van den Brand et al., 2012). Briefly, a midline incision was made over the thoracic vertebrae, followed by a T7-10 laminectomy. For the T7 right side over-hemisection, a scalpel and micro-scissors were carefully used to interrupt the bilateral dorsal column at T7, and ensured no sparing of ventral pathways on the contralateral side (FIG. 1A). For the T10 left hemisection, a scalpel and micro-scissors were carefully used to interrupt only the left side of the spinal cord until the midline. The muscle layers were then sutured, and the skin was secured with wound clips. All animals received post hoc histological analysis, and those with spared 5HT axons at the lumbar spinal cord (L2-5) were excluded for behavioral analysis (FIG. 7).\n(§1) Behavioral Experiments. Motor function was evaluated with a locomotor open field rating scale on the Basso Mouse Scale (BMS). For transient pharmacological treatments, ten to fifteen minutes (van den Brand et al., 2012) prior to behavioral tests (grounding walking, all of which were performed individually), mice received systematic administration (i.p.) of the neural modulators listed above. It is important to note that with a single intraperitoneal injection, plasma CNO levels peak at 15 min and become very low by 2 h after injection (Guettier et al., 2009). For chronic pharmacological treatments, 24 hours prior to behavioral tests, mice received systematic administration of the compounds listed above. All behavioral tests were completed within 1-3 hours. For detailed hindlimb kinematic analysis, mice from different groups were placed in the MotoRater (TSE Systems, (Zorner et al., 2010)), and all kinematic analysis was performed based on data collected by the MotoRater."}, "[2]": {"settings": "Guettier et al., 2009, cited from earlier work"}, "c-Fos": {"test_system": "c-Fos", "experiment": "c-Fos immunoreactivity in spinal cord segments between T7 and T10 after 1 hour walking", "type": "in vivo, mouse", "settings": "chronic treatment", "source_text": "In mature neurons, GABA and glycine are inhibitory because they open chloride channels, which allow chloride ion influx leading to hyperpolarization. In contrast, during development, the elevated intracellular chloride levels render GABAA- and glycine-mediated currents depolarizing and generally excitatory. During early postnatal life, KCC2 upregulation in postnatal neurons is crucial for reducing intracellular chloride concentrations, transforming excitation into inhibition (Ben-Ari et al., 2012; Kaila et al., 2014). Thus, injury-induced KCC2 down-regulation (Boulenguez et al., 2010; Cote et al., 2014) would be expected to restore an immature state in which GABA and glycine receptors can depolarize neurons. In this scenario, KCC2 activation in spinal inhibitory neurons would transform local circuits in the relay zone towards a more physiological state, which is more receptive to descending inputs. To examine this, c-Fos immunoreactivity was used as a proxy of neuronal activity in the spinal cord segments between T7 and T10 at 8 weeks after injury, and after walking on a treadmill for 1 hour. In each group, the majority of c-Fos-positive cells in these spinal segments were also positively stained with NeuN, a neuronal marker (FIG. 11A, 11B). In injured mice without treatment, the c-Fos-positive neurons were concentrated in the dorsal horn of the spinal cord (FIG. 5A-5C), perhaps reflecting hypersensitivity to peripheral sensory inputs in these injured mice. […] This KCC2-transformed distribution pattern is similar to what was detected in intact mice, in response to walking (FIG. 5A-5C).\nImmunohistochemistry and Imaging. The paraformaldehyde (PFA) fixed tissues were cryo-protected with 30% sucrose and processed using cryostat (section thickness 40 μm for spinal cord). Sections were treated with a blocking solution containing 10% normal donkey serum with 0.5% Triton-100 for 2 hours at room temperature before staining. The primary antibodies (4 □, overnight) used were: rabbit anti-GFAP [DAKO (Z0334), 1:600]; rabbit anti-5-HT [Immunostar (20080), 1:5,000]; chicken anti-GFP [Abcam (ab13970), 1:400]; rabbit anti-RFP [Abcam (ab34771), 1:400]; rabbit anti-PKCγ [Santa Cruz (sc211), 1:100]; rat anti-HA [Sigma (11867423001), 1:200]; rabbit anti-c-Fos [Cell signaling (2250s), 1:100]; and mouse anti-NeuN [Millipore (MAB377), 1:400]. Secondary antibodies (room temperature, 2 h) included: Alexa Fluor 488-conjugated donkey anti chicken and rabbit; and Alexa Fluor 594-conjugated donkey anti rabbit (all from Invitrogen). c-Fos immunoreactivity of spinal neurons was determined as previously described (Courtine et al., 2009), after 1-hour of continuous quadrupedal free walking (intact), stepping (CLP290 or AAV-KCC2 treated mice) or dragging (vehicle or AAV-GFP treated mice). The mice were returned to their cages, and were then anesthetized and sacrificed by intracardial perfusion of 4% PFA (wt/vol) in phosphate buffered saline (PBS) about 2 hours later."}, "neuropathic pain": {"test_system": "neuropathic pain", "settings": "animal models; Gagnon et al., 2013; Ferrini et al., 2017; Knabl et al., 2008; cited from earlier work"}, "[3]": {"test_system": "mice with a complete T8 spinal cord transection", "experiment": "BMS open field locomotion after complete T8 spinal cord transection", "type": "in vivo, mouse", "settings": "T8 complete transection, FIG. 7F", "source_text": "CLP290's effects could result from reactivating the spared dormant descending connections in the spinal cord after SCI. However, it could also act directly on the lumbar spinal cord, independently of descending inputs. […] Therefore, different from this transient effector that acts directly on the lumbar spinal cord, the effects of CLP290 on functional improvement are dependent on spared connections.\nThe procedure of T8 full transection was similar to that described elsewhere (Courtine et al., 2009). Briefly, a midline incision was made over the thoracic vertebrae, followed by a T8 laminectomy. The complete T8 transection was then performed carefully using both a scalpel and micro-scissors. The muscle layers were then sutured and the skin was secured with wound clips.\nas §1"}, "[4]": {"settings": "T8/9, 8 weeks after injury, FIG. 5A-5C"}}}
{"smiles": "CCCCNc1cc(C(=O)O)cc(S(N)(=O)=O)c1Oc1ccccc1", "note": "[Bumetanide]", "values": [{"measurement": "stepping ability / functional recovery (BMS), chronic compound treatment", "setting": "[1]", "value": "some effects, but without statistical significance"}]}
{"smiles": "C[N+]1([O-])CCN(C2=Nc3cc(Cl)ccc3Nc3ccccc32)CC1", "note": "[CNO, Clozapine N-oxide]", "values": [{"measurement": "plasma CNO levels", "setting": "[2]; by 2 h after single intraperitoneal injection", "value": "very low"}, {"measurement": "time of peak plasma CNO levels", "setting": "[2]; single intraperitoneal injection", "value": 15, "unit": "min"}]}
{"smiles": "Cn1ncnc1COc1nn2c(-c3cc(F)ccc3F)nnc2cc1C(C)(C)C", "note": "[L838,417]", "values": [{"measurement": "c-Fos-positive neurons in the dorsal horn (laminae I-V)", "setting": "c-Fos; [4]", "value": "reduced c-Fos-positive neurons in dorsal horn"}, {"measurement": "c-Fos-positive neurons in the intermediate/ventral spinal cord", "setting": "c-Fos; [4]", "value": "without increasing those in intermediate zones and ventral region"}, {"measurement": "neuronal activation levels across spinal cord regions", "setting": "c-Fos; staggered injured mice", "value": "reduced neuronal activation levels in all spinal cord regions"}, {"measurement": "stepping ability / functional recovery (BMS), chronic compound treatment", "setting": "[1]", "value": "failed to promote functional motor recovery"}, {"measurement": "effect on neuropathic pain", "setting": "neuropathic pain", "value": "reduce neuropathic pain"}]}
{"smiles": "c1ccc2nc(N3CCNCC3)ccc2c1", "note": "[quipazine]", "values": [{"measurement": "BMS improvement measured acutely after compound administration", "setting": "[3]; 8 weeks, no chronic treatment", "value": "rapid, but transient, BMS improvement"}, {"measurement": "duration of acute BMS improvement / locomotion after administration", "setting": "[3]", "value": "less than 2 hours"}, {"measurement": "start of acute BMS improvement after administration", "setting": "[3]", "value": 10, "unit": "min"}, {"measurement": "BMS improvement measured acutely after compound administration", "setting": "[1]; staggered lesion, 8 weeks after SCI, FIG. 7B", "value": "rapid, but transient, BMS improvement"}, {"measurement": "duration of acute BMS improvement / locomotion after administration", "setting": "[1]; staggered lesion, FIG. 7B", "value": "less than 2 hours"}, {"measurement": "start of acute BMS improvement after administration", "setting": "[1]; staggered lesion, FIG. 7B", "value": 10, "unit": "min"}]}
